Experimental data reported in patent publication US20120251628A1, “COMPOSITIONS AND METHODS FOR TREATMENT OF CANCER” (priority 2011, published 2012).

Tests used:
[1] = tested on: microtubules; assay: Immunohistochemistry of microtubules in HUVECs (confocal microscopy); format: cell-based, Human; settings: 1 uM, 5 uM and 10 uM, 24 and 48 hours, concentration dependent
Description: HUVECs were cultured in a confocal dish (made by SPL, Korea) with F-12K (Sigma) medium containing 10% FBS and endothelial cell growth supplement (ECGS, E2759, Sigma). After cultivation for 24 hours, the cells were treated with sodium meta arsenite at a concentration of 1 uM, 5 uM and 10 uM. At 24 hours and 48 hours after treatment, the cells were fixed with 3.7% paraformaldehyde at room temperature for 10 minutes. After washing with phosphate buffered saline (PBS) solution three times, the cells were treated with 0.15% Triton X-100 for 15 minutes and then washed three times with PBS solution. After blocking with 2% bovine serum albumin (BSA, Sigma) at room temperature for 60 minutes, the cells were washed three times with PBS solution. Monoclonal antibody against α-tubulin (SantaCruze, sc-32293) was reacted with the cells at room temperature for one hour and then the cells were washed three times with the PBS solution. The cells were then reacted with rat anti-mouse IgG1 secondary antibody (Pharmigen, #A85-1) conjugated to FITC. After being washed three times with PBS solution, they were analyzed using a confocal laser scanning microscope (OLYMPUS FV500,1×81).

[2] = Histologic analysis of normal organ tissues for ischemic damage; format: in vivo, mice; settings: 10 mg/kg intraperitoneal; 8, 24 and 48 hours after injection
Description: (§1) Seven-week-old, female, specific-pathogen-free (BALB/c) white mice (weight: approximately 20 g) purchased from ORIENTBIO Inc. (Seoul Korea) were subcutaneously injected with 2×10^6 cells of the CT26 colon carcinoma cell line per mouse. When the tumor size reached 3 mm in diameter, the control group was injected with a phosphate buffered saline (PBS) solution with 5% dextrose while the experimental group was intraperitoneally injected with 100 μL of KML001 at a concentration of 10 mg/kg with 5% dextrose. At 8, 24 and 48 hours after injection, liver, spleen and tumor tissue samples were taken and placed into a 37% solution of formaldehyde for 24 hours. The tissues were inserted into paraffin and sectioned at 4 μm on a microtome (made by SLEE MAINZ GmbH in Germany) and the sections were placed on slides.

[3] = tested on: CT26 colon carcinoma cells; assay: Anti-tumor effect in mice bearing subcutaneous CT26 tumors, alone or with irinotecan; format: in vivo
Description: Female BALBc mice bearing subcutaneous CT26 colon carcinoma cells were injected intraperitoneally with sodium meta arsenite (10/mg/kg body weight) or irinotecan alone, or co-administered weekly for four weeks.

[4] = tested on: CT26 colon carcinoma cell line; assay: Histologic analysis (hematoxylin and eosin) of tumor tissues; format: in vivo, mice; settings: 10 mg/kg intraperitoneal; 8, 24 and 48 hours after injection; with increasing exposure time; from the central part of the tumors
Description: as §1

[5] = tested on: HUVECs; assay: Apoptosis of HUVECs (Annexin-V FACS analysis); format: cell-based, Human
Description: To determine the effect, if any, of sodium meta arsenite on vascularization, the effect on endothelial cells (which are essential for vascularization) was first analyzed. Human umbilical cord vein endothelial cells (HUVECs offered by ATCC) were cultivated in 96-well microculture plates containing F-12K (Sigma) medium supplemented with 10% FBS and endothelial cell growth supplement (ECGS, E2759, Sigma). For the cytotoxicity test of the cells after 24 hour cultivation, the cells were treated with KML001 at the concentration of 0.1 nM, 1 nM, 10 nM, 1 uM, 10 uM and 100 uM. At 24 hours and 48 hours after treatment, 20 μl/well of CellTiter 96® Aqueous One Solution (by Promega) Reagent was added on each well and reacted for one hour at 37° C. The reacted 96-well plates were measured at 490 nm using a spectrophotometer (UVStar, Greiner Bio-One). To analyze apoptosis of HUVECs, the cells were cultivated on F25 flasks using the same method as discussed above and then the cells were treated with sodium meta arsenite at a concentration of 10 uM, 20 uM and 50 uM. Cells were collected after 24 and 48 hours. The collected cells were stained for 30 minutes with Annexin-V for FACS analysis. After two washes, the cells were analyzed by using flow cytometry (FACSCALIBUR, BECTON DICLINSON).

[6] = tested on: tumors; assay: Cell and animal experiments with KML001 injected after tumors were generated; format: in vivo
[7] = tested on: α-tubulin; assay: Western blot of total tubulin protein from HUVECs; format: cell-based, Human; settings: 5, 10, 20 and 50 uM, 24 and 48 hours, higher concentration
Description: (§2) To analyze the change in the overall expression of tubulin, the total amount of tubulin protein was kept to identify by western blotting. HUVECs were cultured in F25 culture flasks containing F-12K (Sigma) medium supplemented with 10% FBS and endothelial cell growth supplement (ECGS, E2759, Sigma). After cultivation for 24 hours, the cells were treated with sodium meta arsenite at concentrations of 5 uM, 10 uM, 20 uM and 50 uM. At 24 hours and 48 hours after treatment, the cells were collected and washed with phosphate buffered saline (PBS) solution. The washed cells were reacted with THF solution (50 mM Tris-Hcl, pH 7.5, 100 mM NaCl, 2 mM EDTA, 1% NP-40, protease inhibitor) at 4° C. for 15 minutes and then broken down or destroyed by use of an ultrasonic cell crusher before SDS (0.5%) was added. Protein from the samples was assayed by using a BCA protein kit (Thermo, 23227) before the same amount of protein (3 μg) was mixed with protein sample buffer. […] warmed up in a water bath in boiling water at 100° C. for five minutes. SDS-PAGE was conducted using a 10% polyacrylamide gel. At the end of electrophoresis, the gel was transferred to nitrocellulose membrane in semi-dry method at room temperature at 220 mA for 40 minutes. […]

[8] = tested on: β-tubulin; assay: Western blot of total tubulin protein from HUVECs; format: cell-based, Human; settings: 5, 10, 20 and 50 uM, 24 and 48 hours, higher concentration
Description: as §2

[9] = injected after tumors were generated

Compound: O=[As][O-].[Na+] [sodium meta arsenite]
- total amount of microtubules [1]: reduction in the total amount of microtubules
- ischemic damage in liver, spleen or kidney tissues [2]: No ischemic damage was observed
- tumor growth delay ([3]; sodium meta arsenite administered 24 hours or 72 hours after irinotecan, weekly for four weeks): Significant tumor growth delay
- tumor regrowth ([3]; sodium meta arsenite alone, 10 mg/kg intraperitoneal): regrowth was observed from the periphery after two days
- necrosis of the tumor ([3]; sodium meta arsenite alone, 10 mg/kg intraperitoneal, by 24 hours after treatment): Massive necrosis in the central part of the tumor
- scope of necrotic cell death in the tumor tissues [4]: observed to increase
- apoptosis, dependence on concentration ([5]; 10 uM, 20 uM and 50 uM): concentration dependent, increasing with increased concentration
- apoptosis over time ([5]; 24 and 48 hours exposure): increased over time
- apoptosis ([6]; cell experiments and animal experiments): occurred dose-dependently
- necrotic phenomena in tumor tissues [6, 9]: occurred
- reduction in tumor volume [6, 9]: no effect
- protein level of α-tubulin [7]: reduced the protein level
- protein level of β-tubulin [8]: reduced the protein level
